# According to US20230048888A1, “USE OF TRIAZOLOTRIAZINE DERIVATIVE IN TREATMENT OF DISEASES” (ZHEJIANG VIMGREEN PHARMACEUTICALS, LTD., priority 2019, published 2023):
# Columns and labels:
# human ADORA1 = biological target: T1, human ADORA1 (Homo sapiens, UniProt P30542); assay: Calcium flow test (FLIPR), ADORA1 stably transfected HEK293; type: cell-based; conditions: Table 9
# T1 construct: host or cells: HEK293
# Excerpt: The binding of the A2AR agonist to A2AR could activate a downstream pathway to increase the intracellular calcium ion concentration. The antagonist would competitively occupy the binding site where the agonist binds to A2AR, thereby interrupting the intracellular signal transduction and leading to a change in the intracellular calcium ion concentration. By detecting the strength of the intracellular calcium ion signal, the antagonistic activities of the compound on human ADORA1, ADORA2A, ADORA2B and ADORA3 adenosine receptors were determined. […]
# 7) The FLIPR instrument software was operated; following a set program, 10 μL of experimental buffer salt solution was added to the cell plate; and fluorescence signals were read. Then, 10 μL of the reference compound of agonist at a predetermined concentration was added to the cell plate, and the fluorescence signals were read. After reading, data was exported by means of “Max-Min” and “Read 91 to Maximum allowed” in the software, the EC80 of each cell line was calculated, and an agonist with a concentration of 6×EC80 was prepared.
# 9) The FLIPR instrument software was operated; following a set program, 10 μL of the test compound and 10 μL of the reference compound were added at a predetermined concentration to the cell plate; and the fluorescence signals were read. […]
# [1] = system: reserpine-induced dyskinesia; assay: Rat reserpine-induced dyskinesia model; type: in vivo
# [2] = system: 6-OHDA Parkinson's disease model with L-DOPA resistance; assay: 6-OHDA-induced rat rotation experiment, second stage: L-DOPA resistance (rotation response time); type: in vivo, Wistar rats
# Excerpt: After long-term use of levodopa, patients with Parkinson's disease are prone to drug resistance (end-of-dose phenomenon). That is, the duration of its pharmaceutical effect tends to gradually become shorter (shortened opening period), its efficacy will become weaker and weaker, and the symptoms of the patients are becoming more and more uncontrollable. By the combined use with the test compound, the efficacy of levodopa can be restored for patients with Parkinson's disease in the off phase, who have already experienced the end-of-dose phenomenon. The rat model of Parkinson's disease was constructed by fixed-point injection of 6-hydroxydopamine (6-OHDA) to damage the substantia nigra striatum, and then the animals were administrated with levodopa (L-DOPA)/Benserazide (BID) for a long term (3-4 weeks as planned). […] On Day 22, at 60 minutes before the intraperitoneal injection of L-DOPA (20 mg/kg)/Benserazide (5 mg/kg), each test group was orally administered with the vehicle, test drug or positive drug. […] Four rotation tests were performed on Days 0, 7, 14 and 21 respectively. On the day of test, both the test drug and the control drug were administered orally only once. On this day, all test animals were also administered with L-DOPA (20 mg/kg)/Benserazide (5 mg/kg) once by intraperitoneal injection to induce rotation. In the second stage, the time for counting rotation with the rotation counter is 180 min. [table] In the second stage, after the intraperitoneal injection of L-DOPA/Benserazide to the experimental animals, the total number of rotations was recorded every 5 min, and the number of rotations per 5 min was calculated based on this, and the 5 min with the largest number of rotations was found from it, and the number of rotations within this 5 min was defined as the peak number of rotations. The first 5 minutes when the number of rotations increased to 20% of the peak number of rotations was the starting point of the rotation response time, and the first 5 minutes when the number of rotations dropped to 20% of the peak number of rotations was the terminating point of the rotation response time. The time between the starting point and the terminating point was regarded as the rotation response time. The test results are represented as “mean±standard deviation”. The data was statistically analyzed by the SPSS16.0 software package. One-way ANOVA, paired sample T test and independent sample T test were used for comparison, with P<0.05 showing a statistical difference.
# [3] = 7.5 mg/kg intragastric, 0-30 min
# [4] = 7.5 mg/kg intragastric, 0-60 min
# [5] = 7.5 mg/kg intragastric, 30-60 min
# [6] = 15 mg/kg intragastric, 0-30 min
# [7] = 15 mg/kg intragastric, 0-60 min
# [8] = 15 mg/kg intragastric, 30-60 min
# [9] = 30 mg/kg intragastric, 0-30 min
# [10] = 30 mg/kg intragastric, 0-60 min
# [11] = 30 mg/kg intragastric, 30-60 min
# [12] = Group 3 (7.5 mg/kg, Day 22) + L-DOPA/Benserazide, before test drug
# [13] = Group 4 (15 mg/kg, Day 22) + L-DOPA/Benserazide, before test drug
# [14] = Group 6 (30 mg/kg, Day 22) + L-DOPA/Benserazide, before test drug
# [15] = Group 7: 5 or 10 mg/kg oral BID*21 + L-DOPA/Benserazide
# [16] = Group 5 (10 mg/kg, Day 22) + L-DOPA/Benserazide, before test drug
# [17] = Group 8: 10 mg/kg oral BID*21 + L-DOPA/Benserazide
# T1 sequence (P30542 whole entry): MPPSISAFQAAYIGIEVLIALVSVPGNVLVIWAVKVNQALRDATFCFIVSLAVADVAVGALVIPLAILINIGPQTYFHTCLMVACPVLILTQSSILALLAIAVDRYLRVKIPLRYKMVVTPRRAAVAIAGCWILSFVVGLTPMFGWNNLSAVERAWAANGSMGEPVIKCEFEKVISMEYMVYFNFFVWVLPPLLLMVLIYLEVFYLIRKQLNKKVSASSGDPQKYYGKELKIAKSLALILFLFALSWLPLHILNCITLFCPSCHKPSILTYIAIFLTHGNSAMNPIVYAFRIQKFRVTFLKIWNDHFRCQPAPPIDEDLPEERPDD
structure (smiles),measurement,setting,value
"Nc1nc(NCCc2ccc(NC3COC3)cc2)nc2nc(-c3ccco3)nn12 [Compound 22, 2-(furan-2-yl)-N5-(4-(oxetan-3-ylamino)phenethyl)-[1,2,4]triazolo[1,5-a][1,3,5]triazine-5,7-diamine]",IC50,human ADORA1,218 ± 148 nM
"Cn1nnc(-c2ccc(CCNc3nc(N)n4nc(-c5ccco5)nc4n3)cc2)n1 [Compound 40, N5-(4-(2-methyl-2H-tetrazol-5-yl)phenethyl)-2-(furan-2-yl)-[1,2,4]triazolo[1,5-a][1,3,5]triazine-5,7-diamine]",IC50,human ADORA1,228 ± 105 nM
"CC(=O)O.Nc1nc(NCCc2ccc(NC3COC3)cc2)nc2nc(-c3ccco3)nn12 [Acetate of Compound 22, 2-(furan-2-yl)-N5-(4-(oxetane-3-ylamino)phenethyl)-[1,2,4]triazolo[1,5-a][1,3,5]triazine-5,7-diamine acetate]",Number of standings,[1]; [3],28.5 ± 7.1
same,Walking distance,[1]; [3],0.9 ± 0.3 m
same,Walking time,[1]; [3],9.3 ± 4.3 s
same,Number of standings,[1]; [4],56.7 ± 12.6
same,Walking distance,[1]; [4],2.0 ± 0.6 m
same,Walking time,[1]; [4],17.8 ± 7.5 s
same,Number of standings,[1]; [5],28.3 ± 6.9
same,Walking distance,[1]; [5],1.0 ± 0.3 m
same,Walking time,[1]; [5],16.2 ± 7.6 s
same,Number of standings,[1]; [6],51.9 ± 7.4
same,Walking distance,[1]; [6],1.8 ± 0.4 m
same,Walking time,[1]; [6],26.3 ± 5.6 s
same,Number of standings,[1]; [7],110 ± 12.7
same,Walking distance,[1]; [7],3.8 ± 0.6 m
same,Walking time,[1]; [7],48.5 ± 8.2 s
same,Number of standings,[1]; [8],58.2 ± 7.7
same,Walking distance,[1]; [8],2.0 ± 0.4 m
same,Walking time,[1]; [8],40.3 ± 15.6 s
same,Number of standings,[1]; [9],56.5 ± 9.6
same,Walking distance,[1]; [9],2.5 ± 1.0 m
same,Walking time,[1]; [9],35.8 ± 12.6 s
same,Number of standings,[1]; [10],97.9 ± 15.3
same,Walking distance,[1]; [10],3.9 ± 1.4 m
same,Walking time,[1]; [10],52.9 ± 17.5 s
same,Number of standings,[1]; [11],41.5 ± 6.7
same,Walking distance,[1]; [11],1.4 ± 0.4 m
same,Walking time,[1]; [11],33.2 ± 12.2 s
same,Rotational reaction time - Day 0,[2]; [12],129.0 ± 9.1 min
same,Rotational reaction time - Day 7,[2]; [12],110.0 ± 27.1 min
same,Rotational reaction time - Day 14,[2]; [12],109.5 ± 11.7 min
same,Rotational reaction time - Day 21,[2]; [12],111.5 ± 14.0 min
same,Rotational reaction time - Day 22,[2]; Group 3: 7.5 mg/kg single oral Day 22 + L-DOPA/Benserazide,133.5 ± 30.0^ min
same,Rotational reaction time - Day 0,[2]; [13],128.9 ± 11.7 min
same,Rotational reaction time - Day 7,[2]; [13],113.3 ± 13.0 min
same,Rotational reaction time - Day 14,[2]; [13],111.1 ± 17.8 min
same,Rotational reaction time - Day 21,[2]; [13],97.5 ± 42.7 min
same,Rotational reaction time - Day 22,[2]; Group 4: 15 mg/kg single oral Day 22 + L-DOPA/Benserazide,146.3 ± 37.0& min
same,Rotational reaction time - Day 0,[2]; [14],135.0 ± 13.1 min
same,Rotational reaction time - Day 7,[2]; [14],121.0 ± 13.3 min
same,Rotational reaction time - Day 14,[2]; [14],110.6 ± 21.9 min
same,Rotational reaction time - Day 21,[2]; [14],104.4 ± 23.0 min
same,Rotational reaction time - Day 22,[2]; Group 6: 30 mg/kg single oral Day 22 + L-DOPA/Benserazide,153.9 ± 22.7& min
same,Rotational reaction time - Day 0,[2]; [15],150.5 ± 11.9 min
same,Rotational reaction time - Day 7,[2]; [15],145.6 ± 3.0 min
same,Rotational reaction time - Day 14,[2]; [15],133.9 ± 8.9 min
same,Rotational reaction time - Day 21,[2]; [15],128.3 ± 13.5 min
same,Effect on body weight of the test animal,"[2]; during the test period, vs model control group",no significant effect on the body weight
"CCn1c(=O)c2c(nc(/C=C/c3ccc(OC)c(OC)c3)n2C)n(CC)c1=O [Istradefylline, reference compound]",Number of standings,[1]; [6],44.1 ± 7.9
same,Walking distance,[1]; [6],1.6 ± 0.6 m
same,Walking time,[1]; [6],19.6 ± 5.9 s
same,Number of standings,[1]; [7],95.7 ± 16.3
same,Walking distance,[1]; [7],2.9 ± 0.9 m
same,Walking time,[1]; [7],35.1 ± 10.1 s
same,Number of standings,[1]; [8],51.6 ± 9.7
same,Walking distance,[1]; [8],1.3 ± 0.4 m
same,Walking time,[1]; [8],32.0 ± 13.7 s
same,Rotational reaction time - Day 0,[2]; [16],116.1 ± 34.4 min
same,Rotational reaction time - Day 7,[2]; [16],126.7 ± 10.6 min
same,Rotational reaction time - Day 14,[2]; [16],116.3 ± 13.8 min
same,Rotational reaction time - Day 21,[2]; [16],114.4 ± 15.9 min
same,Rotational reaction time - Day 22,[2]; Group 5: 10 mg/kg single oral Day 22 + L-DOPA/Benserazide,150.6 ± 37.8& min
same,Rotational reaction time - Day 0,[2]; [17],161.5 ± 14.2 min
same,Rotational reaction time - Day 7,[2]; [17],125.0 ± 23.5 min
